US4167580A, “Compositions and method of use to treat arthritic disease with m-fluorobenzimidoylacetonitrile” (American Cyanamid Company, priority 1978, dated 1979)

What was measured:
[1] = tested on: Carrageenin Induced Edema of the Rat Paw; test: Carrageenin induced edema of the rat paw (acute anti-inflammatory activity); format: in vivo, Royal Hart, Wistar strain rats; conditions: 250 mg./kg. by gavage, 5 hours after drug (4 hours after carrageenin)
Description: In determining the acute anti-inflammatory activity of benzimidoylacetonitrile, Royal Hart, Wistar strain rats ranging in weight from 80 to 90 grams were used. The rats were fasted overnight prior to dosing but had free access to water. The compound was administered in aqueous suspension, by gavage, in a volume of 1.7 ml. per 50 grams of rat [corresponds by hydration volume used by Winter et al., Proc. Soc. […] The phlogistic agent used was carrageenin prepared as a sterile 1% suspension in 0.9% aqueous sodium chloride for routine testing. A volume of 0.05 ml. was injected through a 26 gauge needle into the planter tissue of the right hind paw. Measurements were made 5 hours after drug administration (4 hours after carrageenin challenge). Volumes of both the normal and carrageenin inflamed feet were determined. The difference between the two measurements is considered to be the increased edema due to the carrageenin administration.

[2] = tested on: Body Temperature of Pyretic Rats; test: Body temperature in yeast induced pyrexia; format: in vivo, Royal Hart, Wistar strain rats; conditions: 250 mg./kg. by gavage 17 hours after yeast; measured 19 hours post challenge
Description: The effect of benzimidoylacetonitrile on body temperature in yeast induced pyrexia was determined by the following procedure. Groups of three Royal Hart, Wistar strain rats weighing 80±5 grams were injected subcutaneously in the nape of the neck with 0.6 ml. of a 40% suspension of dried brewers yeast in distilled water. […] At 19 hours post challenge the rectal temperature of each rat was measured with an electric thermometer. Each dose response experiment was replicated one or more times.

[3] = tested on: Adjuvant Arthritis in Rats; test: Adjuvant induced arthritis in rats (chronic inflammation with joint destruction); format: in vivo, Royal Hart, Wistar strain rats; conditions: for % Inhibition of Control Grade (secondary lesion), Day 14 / % Inhibition of Control Grade (secondary lesion), Day 21 / % Inhibition of Swelling (primary lesion), Day 14 / % Inhibition of Swelling (primary lesion), Day 21 / Dead/Treated At 21 Days / Mean Weight Gain, Day 14 / Mean Weight Gain, Day 21: once daily days 0-13
Excerpt: Adjuvant induced experimental polyarthritis is a specific systemic disease of the rat which shares interesting similarities with rheumatoid arthritis. Specifically, the histology of the two diseases bears a remarkable resemblance as shown by C. M. Pearson et al., Am. J. Pathol. 42, 73 (1963). E. M. Glenn, Am. J. Vet. Res. 27 (116), 339 (1966) has classified adjuvant induced polyarthritis as a crippling and permanent deformity resulting from diffuse connective tissue involvement around certain susceptible joints in the rat. Zahiri et al., Can. Med. Ass. J. 101, 269 (1969) have shown that the fusiform swelling of the distal joints is associated with edema, congestion and synovitis including pannus formation, all of which precede the ultimate destruction of bone and cartilage. Furthermore, Zahiri et al. indicate that the cartilage destruction in the joint is due to an invasive pannus which originates in the marginal synovium and extends across the articular surface to erode it. […] See S. Wong et al., J. Pharm. & Exptl. Ther. 185, 127 (1973) and G. R. Bobalick et al., Agents & Actions 4, 364 (1974). In a similar manner, inhibition of the progress of arthritis in paws of rats treated with the compounds of this invention also lessens associated joint deterioration.
Groups of three Royal Hart, Wistar strain rats weighing 200±10 grams each were injected intradermally in the right hind paw with Freund's adjuvant (dried human tubercle bacilli in a mineral oil vehicle) at a dose of 2 mg./kg. of body weight. Test compounds were administered orally in a 1.5% staruh vehicle at various doses once daily on days 0 through 13 post challenge. Control rats were treated in a similar manner, but given only starch vehicle. On the 14th and 21st day post challenge the diameter of the injected paw (primary lesion) was measured by micrometer caliper. The volume of inflamed paws were estimated from these measurements and the results are expressed as percent inhibition of swelling as compared to controls. At the same time, the other inflamed sites, such as ears, paws and tail (secondary lesions) were observed and each rat was graded as to degree of inflammation and swelling present. The grading is based on a scale of 0 to 24, where 0 represents a complete absence of induced arthritic nodules and 24 represents the maximum degree of inflammation. The mean grade for each treated group is calculated and the effects of each compound are expressed as percent inhibition of the control grade. Table III records the results of these tests conducted with benzimidoylacetonitrile, m-fluorobenzimidoylacetonitrile and p-fluorobenzimidoylacetonitrile and known anti-inflammatory agents. The active compounds of the present invention suppress the progression of the arthritis and associated joint deterioration. Of particular interest is the low mortality observed with benzimidoylacetonitrile treated rats relative to either controls or rats treated with standard compounds.

[4] = tested on: Erythema in Guinea Pigs; test: Ultraviolet induced erythema in guinea pigs, topical application; format: in vivo, Albino guinea pigs
Description: Albino guinea pigs were depilitated on their flanks, the evening before testing, with a standard mixture of barium sulfide and gum acacia. On the morning of the test at 0 hour they were restrained in a plastic container which allows exposure of 3 circular spots. They were then exposed to ultraviolet irradiation from a "Hanovia" Kromayer lamp, model 10, for 60 seconds. Immediately after exposure to ultraviolet light, the guinea pigs were treated by dissolving the test compound in ethyl alcohol at various concentrations and swabbing the UV exposed areas with the aid of a cottom tipped applicator stick. At one and four hours, the degree of erythema for each of the three sites was assessed according to the following scoring system: 0=no erythema, 0.5=incomplete circle or faint erythema and 1.0=complete circle of distinct erythema. Thus, the maximum score for each animal was 3.0.

[5] = 1% in ethyl alcohol, maximum score 3.0, ethyl alcohol control 2.5
[6] = 1% in ethyl alcohol, maximum score 3.0, ethyl alcohol control 3.0

CC(=O)Oc1ccccc1C(=O)O [Aspirin]
C/T Edema Ratio (edema of control animals/edema of treated animals) [1]: 2.8
Decrease In Body Temp. [2]: 1.5 °C
% Inhibition of Control Grade (secondary lesion), Day 14 ([3]; 50 mg./kg. oral): 12%
% Inhibition of Control Grade (secondary lesion), Day 21 ([3]; 50 mg./kg. oral): 9%
% Inhibition of Swelling (primary lesion), Day 14 ([3]; 50 mg./kg. oral): 23%
% Inhibition of Swelling (primary lesion), Day 21 ([3]; 50 mg./kg. oral): 3%
Dead/Treated At 21 Days ([3]; 50 mg./kg. oral): 2/21
Mean Weight Gain, Day 14 ([3]; 50 mg./kg. oral): 56 grams
Mean Weight Gain, Day 21 ([3]; 50 mg./kg. oral): 44 grams
% Inhibition of Control Grade (secondary lesion), Day 14 ([3]; 100 mg./kg. oral): 19%
% Inhibition of Control Grade (secondary lesion), Day 21 ([3]; 100 mg./kg. oral): 8%
% Inhibition of Swelling (primary lesion), Day 14 ([3]; 100 mg./kg. oral): 36%
% Inhibition of Swelling (primary lesion), Day 21 ([3]; 100 mg./kg. oral): 13%
Dead/Treated At 21 Days ([3]; 100 mg./kg. oral): 18/63
Mean Weight Gain, Day 14 ([3]; 100 mg./kg. oral): 48 grams
Mean Weight Gain, Day 21 ([3]; 100 mg./kg. oral): 53 grams
% Inhibition of Control Grade (secondary lesion), Day 14 ([3]; 200 mg./kg. oral): 26%
% Inhibition of Control Grade (secondary lesion), Day 21 ([3]; 200 mg./kg. oral): 17%
% Inhibition of Swelling (primary lesion), Day 14 ([3]; 200 mg./kg. oral): 48%
% Inhibition of Swelling (primary lesion), Day 21 ([3]; 200 mg./kg. oral): 27%
Dead/Treated At 21 Days ([3]; 200 mg./kg. oral): 10/66
Mean Weight Gain, Day 14 ([3]; 200 mg./kg. oral): 40 grams
Mean Weight Gain, Day 21 ([3]; 200 mg./kg. oral): 44 grams
% Inhibition of Control Grade (secondary lesion), Day 14 ([3]; 400 mg./kg. oral): 58%
% Inhibition of Control Grade (secondary lesion), Day 21 ([3]; 400 mg./kg. oral): 45%
% Inhibition of Swelling (primary lesion), Day 14 ([3]; 400 mg./kg. oral): 73%
% Inhibition of Swelling (primary lesion), Day 21 ([3]; 400 mg./kg. oral): 48%
Dead/Treated At 21 Days ([3]; 400 mg./kg. oral): 19/57
Mean Weight Gain, Day 14 ([3]; 400 mg./kg. oral): 41 grams
Mean Weight Gain, Day 21 ([3]; 400 mg./kg. oral): 55 grams
Erythema Score (Avg.) 1 Hr. [4, 5]: 1.9
Erythema Score (Avg.) 4 Hr. [4, 6]: 2.8

N#CCC(=N)c1ccccc1 [Benzimidoylacetonitrile, benzimidoylacetonitrile]
C/T Edema Ratio (edema of control animals/edema of treated animals) [1]: 2.2
Decrease In Body Temp. [2]: 1.4 °C
% Inhibition of Control Grade (secondary lesion), Day 14 ([3]; 25 mg./kg. oral): 33%
% Inhibition of Control Grade (secondary lesion), Day 21 ([3]; 25 mg./kg. oral): 16%
% Inhibition of Swelling (primary lesion), Day 14 ([3]; 25 mg./kg. oral): 33%
% Inhibition of Swelling (primary lesion), Day 21 ([3]; 25 mg./kg. oral): 32%
Dead/Treated At 21 Days ([3]; 25 mg./kg. oral): 1/9
Mean Weight Gain, Day 14 ([3]; 25 mg./kg. oral): 41 grams
Mean Weight Gain, Day 21 ([3]; 25 mg./kg. oral): 38 grams
% Inhibition of Control Grade (secondary lesion), Day 14 ([3]; 50 mg./kg. oral): 59%
% Inhibition of Control Grade (secondary lesion), Day 21 ([3]; 50 mg./kg. oral): 48%
% Inhibition of Swelling (primary lesion), Day 14 ([3]; 50 mg./kg. oral): 63%
% Inhibition of Swelling (primary lesion), Day 21 ([3]; 50 mg./kg. oral): 62%
Dead/Treated At 21 Days ([3]; 50 mg./kg. oral): 1/24
Mean Weight Gain, Day 14 ([3]; 50 mg./kg. oral): 31 grams
Mean Weight Gain, Day 21 ([3]; 50 mg./kg. oral): 49 grams
% Inhibition of Control Grade (secondary lesion), Day 14 ([3]; 100 mg./kg. oral): 57%
% Inhibition of Control Grade (secondary lesion), Day 21 ([3]; 100 mg./kg. oral): 46%
% Inhibition of Swelling (primary lesion), Day 14 ([3]; 100 mg./kg. oral): 68%
% Inhibition of Swelling (primary lesion), Day 21 ([3]; 100 mg./kg. oral): 60%
Dead/Treated At 21 Days ([3]; 100 mg./kg. oral): 0/15
Mean Weight Gain, Day 14 ([3]; 100 mg./kg. oral): 46 grams
Mean Weight Gain, Day 21 ([3]; 100 mg./kg. oral): 65 grams
duration of action (in words) ([3]; greater suppression of primary and secondary lesions at the 21 day observation period): longer duration of action than standards
mortality (in words) ([3]; relative to either controls or rats treated with standard compounds): low mortality
Erythema Score (Avg.) 1 Hr. [4, 5]: 1.0
Erythema Score (Avg.) 4 Hr. [4, 6]: 2.8
Erythema Score (Avg.) 1 Hr. ([4]; 2% in ethyl alcohol, maximum score 3.0, control 2.5): 0.6
Erythema Score (Avg.) 4 Hr. ([4]; 2% in ethyl alcohol, maximum score 3.0, control 3.0): 2.7

N#CCC(=N)c1cccc(F)c1 [m-Fluorobenzimidoylacetonitrile, m-fluorobenzimidoylacetonitrile]
% Inhibition of Swelling (primary lesion), Day 14 ([3]; 50 mg./kg. oral): 40%
% Inhibition of Swelling (primary lesion), Day 21 ([3]; 50 mg./kg. oral): 7%
Dead/Treated At 21 Days ([3]; 50 mg./kg. oral): 1/18
Mean Weight Gain, Day 14 ([3]; 50 mg./kg. oral): 64 grams
Mean Weight Gain, Day 21 ([3]; 50 mg./kg. oral): 60 grams

N#CCC(=N)c1ccc(F)cc1 [p-Fluorobenzimidoylacetonitrile, p-fluorobenzimidoylacetonitrile]
% Inhibition of Control Grade (secondary lesion), Day 14 ([3]; 25 mg./kg. oral): 14%
% Inhibition of Control Grade (secondary lesion), Day 21 ([3]; 25 mg./kg. oral): 9%
% Inhibition of Swelling (primary lesion), Day 14 ([3]; 25 mg./kg. oral): 26%
% Inhibition of Swelling (primary lesion), Day 21 ([3]; 25 mg./kg. oral): 14%
Dead/Treated At 21 Days ([3]; 25 mg./kg. oral): 2/18
Mean Weight Gain, Day 14 ([3]; 25 mg./kg. oral): 53 grams
Mean Weight Gain, Day 21 ([3]; 25 mg./kg. oral): 50 grams
% Inhibition of Control Grade (secondary lesion), Day 14 ([3]; 50 mg./kg. oral): 27%
% Inhibition of Control Grade (secondary lesion), Day 21 ([3]; 50 mg./kg. oral): 8%
% Inhibition of Swelling (primary lesion), Day 14 ([3]; 50 mg./kg. oral): 43%
% Inhibition of Swelling (primary lesion), Day 21 ([3]; 50 mg./kg. oral): 25%
Dead/Treated At 21 Days ([3]; 50 mg./kg. oral): 4/36
Mean Weight Gain, Day 14 ([3]; 50 mg./kg. oral): 66 grams
Mean Weight Gain, Day 21 ([3]; 50 mg./kg. oral): 57 grams
% Inhibition of Control Grade (secondary lesion), Day 14 ([3]; 100 mg./kg. oral): 49%
% Inhibition of Control Grade (secondary lesion), Day 21 ([3]; 100 mg./kg. oral): 22%
% Inhibition of Swelling (primary lesion), Day 14 ([3]; 100 mg./kg. oral): 53%
% Inhibition of Swelling (primary lesion), Day 21 ([3]; 100 mg./kg. oral): 29%
Dead/Treated At 21 Days ([3]; 100 mg./kg. oral): 1/18
Mean Weight Gain, Day 14 ([3]; 100 mg./kg. oral): 78 grams
Mean Weight Gain, Day 21 ([3]; 100 mg./kg. oral): 67 grams
